From patent publication US20250161317A1, “MOLIDUSTAT FORMULATIONS AND METHODS OF USE FOR TREATMENT OF ANEMIA IN CATS” (ELANCO US INC., priority 2022, published 2025)
Like-named read-outs stand apart in the source and are kept apart here.

Assays:
[1] = system: healthy, adult cats; experiment: Pharmacodynamic effects on hematocrit in healthy adult cats, daily oral dosing; format: in vivo, cat
Description: (§1) This study evaluated the effects of molidustat on red blood cell parameters in healthy, adult cats, if administered daily via the oral route at different dosages and using different formulations of molidustat sodium. The hematocrit, erythropoietin (EPO) and molidustat plasma concentrations during the treatment phase were examined, with hematocrit representing the main outcome parameter.
(§2) Twenty-two adult cats were randomized to three treatment groups and one control group with 5 and 6 cats/group respectively (3 (2) male/3 female). After a baseline phase of two weeks the cats were orally treated in fasted condition once daily. […] The oily suspensions were in accordance with the oily suspension described in Example 1.
To keep the application volume per kg bodyweight (BW) consistent for each animal the oily suspension of molidustat was available at two different concentrations (5% and 10%), so that each cat was treated with 0.1 mL/kg BW of the respective formulation.
(§3) For evaluation of the hematological parameters blood samples were taken at regular intervals before, during and after the treatment phase. Additionally, plasma samples were collected at study day (SD) 0, SD 7 and SD 23 before and after treatment and analyzed for their concentration of EPO and molidustat.

[2] = system: Erythropoietin (EPO); experiment: EPO plasma concentrations in healthy adult cats, daily oral dosing; format: in vivo, cat; conditions: 6 hours post treatment, all study days measured
Description: as §1, §2, §3

[3] = system: healthy, adult cats; experiment: Tolerability and safety in healthy adult cats, daily oral dosing (Example 3); format: in vivo, cat; conditions: once daily oral
Description: as §2
Treatments had no impact on the cats' body weight. None of the findings observed during the physical examinations or general health observations were rated as having a negative impact on the outcome of the study. The most frequently observed findings were vomiting of small amounts of fluid.

[4] = Plasma pharmacokinetic study after single oral administration to fasted and fed cats; format: in vivo, cat; conditions: for AUC / AUC(0-t) / Cmax / Tmax: female, European Shorthaired, plasma, po, 3 mg/kg; for AUC / AUC(0-t) / Cmax / Tmax / Clb / MRTint / Vz / t1//2: 3.0 mg molidustat sodium per kg; for AUC / AUC(0-t) / Cmax / Clb / MRTint / Vz / t1//2: geometric mean; for Tmax: median
Protocol: (§4) Four adult, healthy, female European Shorthaired cats were selected for the study. On the day prior to treatment feed was withdrawn to ensure a fasted prandial state for the oral treatment.
The pharmacokinetic profile of the HIF-PHI was determined in plasma of 3 adult, female, healthy European Shorthaired cats with a mean body weight of 3.5 kg (StD=0.41 kg). One animal was removed from the study due to difficult handling of the animal.
(§5) The animals were treated in a fasted prandial state with the test item at a single oral dose rate of 3.0 mg/kg. After a wash out period of 14 days the animals were treated with the test item at the same dose rate and same administration route, but in a fed prandial state. Frequent blood samplings at fixed intervals were performed over a period of 48 hours after each treatment.
The plasma samples were analyzed with regard to their concentrations of molidustat and its metabolite by HPLC using a tandem mass spectrometric detector (AB Sciex API 4000).
From the individual plasma concentration-time-profiles obtained pharmacokinetics (PK) were derived using non-compartmental analyses.

[5] = system: Erythropoietin (EPO); experiment: Erythropoietin concentrations after single oral administration (Example 2); format: in vivo, cat; conditions: 6 hours after treatment, oral 3.0 mg/kg to fed or fasted cats
Protocol: as §4, §5
(§6) Peak and extent of plasma exposure of molidustat was higher if administered orally as sodium salt to cats at fasted prandial state compared to fed prandial state. Metabolized molidustat amounted to approximately 60% in total exposure independent of prandial state.

[6] = system: cats; experiment: Clinical tolerance after two oral treatments (Example 2); format: in vivo; conditions: two oral treatments at 3.0 mg/kg in cats
Protocol: as §5, §6

[7] = system: cats with anemia associated with CKD; experiment: Placebo-controlled field study, efficacy (HCT/PCV) in cats with anemia associated with CKD; format: in vivo, cat
Description: The objective of this study was to evaluate the safety and efficacy of molidustat to manage anemia associated with chronic kidney disease (CKD) in cats.
A total of 65 cats were screened at 11 US and 9 EU sites. Twenty-three (23) cats (13 cases from 9 sites in the US and 10 cases from 9 sites in the EU), with nearly equally distributed genders, mostly domestic shorthair breed, ranging in age from 4 to 17 years, and having initial body weights between 2 and 6 kilograms, were randomized and administered one of the two treatments. A total of 21 cats were included in the 28-day efficacy phase.

[8] = system: cats with anemia associated with CKD; experiment: Field study, in-use safety in cats with anemia associated with CKD
Protocol: This study was conducted using a single protocol in the United States (US, n=23 clinics) and Europe (EU, n=11 clinics) over a 10 month period. On study day (SD) −7 (±2 days), blood was collected for serum chemistry and hematology from cats that qualified for enrollment. After meeting enrollment criteria, cats were orally treated once daily for at least 28 consecutive days (SD 0 to SD 27) with either the control product (CP [vehicle]) or molidustat. The molidustat was administered orally at a dose of 5 mg/kg body weight (bw) (0.2 mL/kg bw). Blood was collected to assess hematological parameters on SDs 0, 7, 14, 21 and 28 (±2 days for all time points except SD 0). Blood was also collected for evaluating serum chemistry on SD 28 (±2 days), except creatinine. Hematocrit (HCT) and packed cell volumes (PCV, performed at each clinic) were the primary hematological parameters of interest. Individual animal treatment success was evaluated up to and including SD 28±2 using three different criteria, as well as using only the data on SD 28.

[9] = Plasma pharmacokinetics after repeated once daily oral dosing of 2.5% (m/v) oily suspension; format: in vivo, cat; conditions: for AUC / Cmax / Tmax / half-life: both sexes, plasma, po, 4.8 mg/kg, 4.8 mg molidustat sodium per kg once daily oral, geometric mean (CV)
Protocol: Following a single group design, eight healthy, young adult cats (4 neutered males, 4 spayed females) were included in the study. The animals were between 14 and 15.5 months old and weighed between 3.35 and 4.95 kg at start of the in-life phase.
The dose rate administered was 4.8 mg molidustat sodium per kg. Dosing was once daily on 6 consecutive days keeping an interval of 24 h. Dose rate calculation was based on the body weights determined on SD-1 for all administrations.
Thirty-one blood samples were drawn per animal following a pre-determined schedule deemed suitable to describe the pharmacokinetic profile of the active substance contained in the test item after repeated dosing to cats.
Concentrations of the active substance molidustat and its major metabolite in plasma were analyzed by High Performance Liquid Chromatography/Tandem Mass Spectrometry. The lower limit of quantitation was 5 μg/L for each substance.
Pharmacokinetic evaluation of plasma concentration data was based on the observed data using non-compartmental methods and comprised all PK-parameters to adequately describe the absorption, distribution and elimination phase of the active substance and its metabolite after repeated dosing with the test item.

[10] = Plasma pharmacokinetics, oral bioavailability and dose proportionality after single oral dose; format: in vivo, cat; conditions: both sexes, geometric mean (CV)
Protocol: (§7) The test item was applied as single oral dose at the expected target dose rate of 5 mg molidustat sodium per kg bw, at 2.5 mg/kg and at 10 mg/kg to healthy adult cats. A single intravenous bolus dose of 5.0 mg/kg was applied for comparison using a suitable reference item (molidustat sodium aqueous solution 2.0% (m/v)).
(§8) Following a mixed serial/cross-over design, 16 healthy, adult cats (8 neutered males, 8 spayed females) were included in the study and allocated to […]. The animals were between 13.7 and 14.7 months old and weighed between 3.3 and 6.0 kg at start of the in-life phase.
(§9) The dose rates administered were at means of 2.42 mg/kg, 4.79, and 9.54 mg molidustat sodium per kg for the 0.5×, 1×, 2× dose groups, respectively. The reference item was dosed at an actual mean dose rate of 5.15 mg/kg. Dose rate calculations were based on the body weights determined prior to each study period.
(§10) Fifteen blood samples were drawn per animal after oral dosing (16 samples/animal after intravenous dosing) following a pre-determined schedule deemed suitable to describe the pharmacokinetic profile of the active substance contained in the test and reference item after single oral or intravenous dosing to cats.
(§11) Concentrations of the active substance molidustat and its major […] were analyzed by High Performance Liquid Chromatography/Tandem Mass Spectrometry in accordance with method 01469 (Krebber et al., Analytical method for the determination of BAY 85-3934 and its metabolite BAY 116-3348 in plasma by LC-MS/MS, BAG-CS report MR-15/109). The lower limit of quantitation was 5 μg/L for each substance.
(§12) Pharmacokinetic evaluation of plasma concentration data was based on the observed data using non-compartmental methods and comprised all PK-parameters to adequately describe the absorption, distribution and elimination phase of the active substance and its metabolite after oral or intravenous dosing with the test or reference item. For pharmacokinetic evaluation actual individual dose rates were used to account for the small differences between target and actual dose rates. All animals finished the in-life phase according to schedule.

[11] = Plasma pharmacokinetics after single intravenous bolus dose; format: in vivo, cat; conditions: for Vd: read-out: volume of distribution
Protocol: as §7, §8, §9, §10, §11, §12

[12] = SD 21, baseline-controlled analysis
[13] = SD 28, baseline-controlled analysis
[14] = both sexes, plasma, 5 mg/kg, single intravenous bolus 5 mg molidustat sodium per kg
[15] = female, plasma, iv, 5 mg/kg, females
[16] = male, plasma, iv, 5 mg/kg, males

SMILES: [Na+].[O-]c1c(-n2ccnn2)cnn1-c1cc(N2CCOCC2)ncn1 [molidustat sodium, sodium 1-[6-(morpholin-4-yl)pyrimidin-4-yl]-4-(1H-1,2,3-triazol-1-yl)-1H-pyrazol-5-olate]
- mean hematocrit compared to placebo ([1]; 5 mg/kg once daily oral, at SD 14): significantly higher
- mean hematocrit compared to placebo ([1]; 10 mg/kg once daily oral, already at SD 7): significantly higher
- study day from which mean hematocrit was comparable to placebo group ([1]; after cessation of treatment): SD 70
- study day on which mean hematocrit returned to levels within reference range ([1]; after cessation of treatment): SD 56
- hematocrit relative to reference range ([1]; all treated animals, for up to 42 days after treatment): increase in hematocrit above the reference range
- EPO concentrations compared to the placebo group [2]: significantly differed
- tolerability and safety ([3]; all study groups): very well tolerated and safe
- impact on body weight [3]: no impact

SMILES: O=c1c(-n2ccnn2)c[nH]n1-c1cc(N2CCOCC2)ncn1 [molidustat, 2-[6-(morpholin-4-yl)pyrimidin-4-yl]-4-(1H-1,2,3-triazol-1-yl)-2,3-dihydro-1H-pyrazol-3-one]
- AUC ([4]; oral to fasted cats): 8420 ng·h/mL
- AUC(0-t) ([4]; oral to fasted cats): 8410 ng·h/mL
- Cmax ([4]; oral to fasted cats): 3130 ng/mL
- Tmax ([4]; oral to fasted cats): 0.67 h
- AUC ([4]; oral to fed cats): 6300 ng·h/mL
- AUC(0-t) ([4]; oral to fed cats): 6280 ng·h/mL
- Cmax ([4]; oral to fed cats): 930 ng/mL
- Tmax ([4]; oral to fed cats): 1 h
- peak and extent of plasma exposure, fasted compared to fed prandial state ([4]; oral as sodium salt, 3.0 mg/kg): higher
- Clb ([4]; oral to fasted cats): 6 mL/min/kg
- MRTint ([4]; oral to fasted cats): 3.7 h
- Vz ([4]; oral to fasted cats): 3.74 L/kg
- t1//2 ([4]; oral to fasted cats): 7.28 h
- Clb ([4]; oral to fed cats): 8 mL/min/kg
- MRTint ([4]; oral to fed cats): 7.0 h
- Vz ([4]; oral to fed cats): 4.59 L/kg
- t1//2 ([4]; oral to fed cats): 6.69 h
- Erythropoietin (EPO) concentrations [5]: highly increased
- clinical tolerance [6]: clinically well tolerated without any clinical signs of intolerance
- HCT and PCV levels throughout the continuation phase ([7]; 8 cats, 5 mg/kg or intermittent 2.5 mg/kg): maintained or increased
- PCV increase relative to baseline ([7]; SD 14, p=0.0167): 2.21%
- HCT increase relative to baseline ([7]; SD 14, p=0.0643): 1.87%
- HCT difference from average baseline [7, 12]: 3.91%
- PCV difference from average baseline [7, 12]: 3.46%
- HCT and PCV results compared to the CP group ([7]; SD 21, p-values<0.01): significantly greater
- PCV/HCT in comparison to SD 0 ([7]; SD 21 and SD 28, once daily for 28 days at 5 mg/kg, anemic cats): significantly increased
- HCT difference from average baseline [7, 13]: 3.68%
- PCV difference from average baseline [7, 13]: 3.89%
- HCT and PCV increases compared to the CP group ([7]; SD 28, p<0.061): approached statistical significance
- treatment related adverse events ([8]; alone or with concomitant medications for CKD): No treatment related adverse events
- tolerability of treatment ([8]; once daily for 28 days at 5 mg/kg): well tolerated
- AUC ([9]; first dose): 13300 ng·h/mL
- Cmax ([9]; first dose): 4460 ng/mL
- Tmax ([9]; first dose): 0.64 h
- half-life ([9]; first dose): 4.2 h
- AUC ([9]; last (6th) dose): 13300 ng·h/mL
- Cmax ([9]; last (6th) dose): 4100 ng/mL
- Tmax ([9]; last (6th) dose): 0.94 h
- half-life ([9]; last (6th) dose): 6.5 h
- accumulation index ([9]; repeated once daily oral dosing, 6 days): 1.1
- AUC ([10]; 2.5 mg/kg single oral dose): 5600 ng·h/mL
- Cmax ([10]; 2.5 mg/kg single oral dose): 2700 ng/mL
- Tmax ([10]; 2.5 mg/kg single oral dose): 0.5 h
- half-life ([10]; 2.5 mg/kg single oral dose): 5 h
- AUC ([10]; 5.0 mg/kg single oral dose): 12700 ng·h/mL
- Cmax ([10]; 5.0 mg/kg single oral dose): 3830 ng/mL
- Tmax ([10]; 5.0 mg/kg single oral dose): 1 h
- half-life ([10]; 5.0 mg/kg single oral dose): 4.6 h
- AUC ([10]; 10 mg/kg single oral dose): 23500 ng·h/mL
- Cmax ([10]; 10 mg/kg single oral dose): 6730 ng/mL
- Tmax ([10]; 10 mg/kg single oral dose): 1 h
- half-life ([10]; 10 mg/kg single oral dose): 7.1 h
- clearance [11, 14]: 5.17 mL/min/kg
- half-life ([11]; both sexes, plasma, 5 mg/kg, single intravenous bolus 5 mg molidustat sodium per kg, read-out: elimination half-life (converted)): 5.91 h
- Vd [11, 14]: 2.69 L/kg
- clearance [11, 15]: 5.5 mL/min/kg
- Vd [11, 15]: 2.96 L/kg
- clearance [11, 16]: 5 mL/min/kg
- Vd [11, 16]: 2.36 L/kg
- mean plasma exposure ([11]; single intravenous bolus 5 mg molidustat sodium per kg (aqueous solution 2.0%)): 16350 ng·h/mL
